Patent US20240327393A1 (SIRONAX LTD., priority 2021, published 2024)

Tested on: HT-1080 (ATCC, CCL-121) cells
Experiment: HT-1080 cell viability assay with ferroptosis inducer RSL3 (Cell Titer-Glo)
Assay type: cell-based
Settings: Homo sapiens; HT-1080 cells treated with RSL3; 3-fold, 10-point dilution, 1.1 μM highest concentration; Table 2; read-out: EC50 (nM), ferroptosis inhibitory activity
Method in brief: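 EC50 was derived by sigmoidal dose-response regression of CellTiter-Glo luminescence viability, expressed relative to untreated wells. Compounds were tested in a ten-point, threefold dilution series (highest 1.1 μM) in the presence of the ferroptosis inducer RSL3. HT-1080 cells had been seeded at 6000 per well and grown overnight first.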

Structure (SMILES) | EC50
CCn1c(=O)cnc2cc(Nc3ccc(N4CCC(C(F)(F)F)CC4)cc3)ccc21 [Compound 116, 1-ethyl-6-((4-(4-(trifluoromethyl)piperidin-1-yl)phenyl)amino) quinoxalin-2(1H)-one] | 0.1 to 100 nM
CN1Cc2cc(Nc3ccc(N4C[C@H]5CC[C@@H]4C5)cc3)ccc2C1=O [Compound 245, 5-((4-((1R,4S)-2-azabicyclo[2.2.1]heptan-2-yl)phenyl)amino)-2-methylisoindolin-1-one] | 0.1 to 100 nM
CN1C(=O)COc2cc(Nc3ccc(OC4CCCCC4)cc3)ccc21 [Compound 7, 7-((4-(cyclohexyloxy)phenyl)amino)-4-methyl-2H-benzo[b][1,4]oxazin-3(4H)-one] | 0.1 to 100 nM
CCn1[nH]c2cc(Nc3ccc(N4CCC(C(F)(F)F)CC4)cc3)ccc2c1=O [Compound 252, 2-ethyl-6-((4-(4-(trifluoromethyl)piperidin-1-yl)phenyl)amino)-1,2-dihydro-3H-indazol-3-one] | 0.1 to 100 nM
CN1C(=O)COc2cc(Nc3ccc(N4CC5CCC4CO5)c(F)c3)ccc21 (stereo not shown) [Compound 98, 7-((4-(2-oxa-5-azabicyclo[2.2.2]octan-5-yl)-3-fluorophenyl)amino)-4-methyl-2H-benzo[b][1,4]oxazin-3(4H)-one] | 0.1 to 100 nM
CN1CCN(CC(=O)N2CCc3cc(Nc4ccc(N5CCC(C(F)(F)F)CC5)c(F)c4)ccc3C2)CC1 [Compound 108, 1-(6-((3-fluoro-4-(4-(trifluoromethyl)piperidin-1-yl)phenyl)amino)-3,4-dihydroisoquinolin-2(1H)-yl)-2-(4-methylpiperazin-1-yl)ethan-1-one] | 0.1 to 100 nM
CN1Cc2cc(Nc3ccc(N4CCC(C(F)(F)F)C4)cc3)ccc2C1=O (stereo not shown) [Compound 222, 2-methyl-5-((4-(3-(trifluoromethyl)pyrrolidin-1-yl)phenyl)amino) isoindolin-1-one] | 0.1 to 100 nM
CN1C(=O)COc2cc(Nc3ccc(N4CCC(C(F)(F)F)CC4)cc3)c(F)cc21 [Compound 156, 6-fluoro-4-methyl-7-((4-(4-(trifluoromethyl)piperidin-1-yl)phenyl)amino)-2H-benzo[b][1,4]oxazin-3(4H)-one] | 0.1 to 100 nM
CN(C)c1cccc(Nc2ccc3c(c2)n(C)c(=O)n3C)c1 [Compound 308, 5-((3-(dimethylamino)phenyl)amino)-1,3-dimethyl-1,3-dihydro-2H-benzo[d]imidazol-2-one] | 0.1 to 100 nM
CC1CCN(c2c(F)cc(Nc3ccc4c(c3)n(C)c(=O)n4C)cc2F)CC1 [Compound 274, 5-((3,5-difluoro-4-(4-methylpiperidin-1-yl)phenyl)amino)-1,3-dimethyl-1,3-dihydro-2H-benzo[d]imidazol-2-one] | 0.1 to 100 nM
Cc1cc(Nc2ccc3c(c2)OCC(=O)N3)ccc1N1CC(C)OC(C)C1 (stereo not shown) [Compound 138, 7-((4-(2,6-dimethylmorpholino)-3-methylphenyl)amino)-2H-benzo[b][1,4]oxazin-3(4H)-one] | 0.1 to 100 nM
Cn1c(=O)n(C)c2cc(Nc3ccc(N4CCC(C(F)(F)F)CC4)cc3C#N)ccc21 [Compound 374, 2-((1,3-dimethyl-2-oxo-2,3-dihydro-1H-benzo[d]imidazol-5-yl)amino)-5-(4-(trifluoromethyl)piperidin-1-yl)benzonitrile] | 0.1 to 100 nM
Cn1c(=O)oc2cc(Nc3ccc(N4CCC(CF)CC4)cc3)ccc21 [Compound 387, 6-((4-(4-(fluoromethyl)piperidin-1-yl)phenyl)amino)-3-methylbenzo[d]oxazol-2(3H)-one] | 0.1 to 100 nM
CC1CN(c2c(F)cc(Nc3ccc4c(c3)OCC(=O)N4C)cc2F)CC(C)O1 (stereo not shown) [Compound 67] | 0.1 to 100 nM
FC(F)(F)C1CCN(c2ccc(Nc3ccc4cn[nH]c4c3)cc2)CC1 [Compound 366, N-(4-(4-(trifluoromethyl)piperidin-1-yl)phenyl)-1H-indazol-6-amine] | 0.1 to 100 nM
FC(F)(F)C1CCN(c2ccc(Nc3ccc4ccoc4c3)cc2)CC1 [Compound 351, N-(4-(4-(trifluoromethyl)piperidin-1-yl)phenyl)benzofuran-6-amine] | 0.1 to 100 nM
FC(F)(F)C1CCN(c2ccc(Nc3ccc4ncoc4c3)cc2)CC1 [Compound 360, N-(4-(4-(trifluoromethyl)piperidin-1-yl)phenyl)benzo[d]oxazol-6-amine] | 0.1 to 100 nM
Cc1cc(C)cc(Nc2ccc3c(c2)CN(C)C3=O)c1 [Compound 226, 5-((3,5-dimethylphenyl)amino)-2-methylisoindolin-1-one] | 0.1 to 100 nM

Same assay, conditions: Homo sapiens; HT-1080 cells treated with RSL3; 3-fold, 10-point dilution, 1.1 μM highest concentration; Table 3; read-out: EC50 (nM), ferroptosis inhibitory activity

Structure (SMILES) | EC50
Cc1c(Nc2ccc(N3CCC(C(F)(F)F)CC3)cc2)ccc2c1OCC(=O)N2 [Compound 568, 8-methyl-7-((4-(4-(trifluoromethyl)piperidin-1-yl)phenyl)amino)-2H-benzo[b] [1,4] oxazin-3(4H)-one] | 0.1 to 100 nM
CN1C(=O)COc2cc(Nc3ccc(N4CCC(C(F)(F)F)CC4)cc3)c(O)cc21 [Compound 495, 6-hydroxy-4-methyl-7-({4-[4-(trifluoromethyl)piperidin-1-yl]phenyl}amino)-2H-1,4-benzoxazin-3-one] | 0.1 to 100 nM
CCNc1ccc(Nc2ccc3c(c2)OCC(=O)N3)c(C)c1 [Compound 635, 7-((4-(ethylamino)-2-methylphenyl)amino)-2H-benzo[b][1,4]oxazin-3(4H)-one] | 0.1 to 100 nM
Cc1cc(N2CCC(C(F)(F)F)CC2)ccc1Nc1ccc2c(c1)C(C)(C)C(=O)N2 [Compound 514, 3,3-dimethyl-5-((2-methyl-4-(4-(trifluoromethyl)piperidin-1-yl)phenyl)amino)indolin-2-one] | 0.1 to 100 nM
Cc1cc(N2CC(OC(F)(F)F)C2)ccc1Nc1ccc2c(c1)OCCC(=O)N2 [Compound 614, 8-((2-methyl-4-(3-(trifluoromethoxy)azetidin-1-yl)phenyl)amino)-2,3-dihydrobenzo[b][1,4]oxazepin-4(5H)-one] | 0.1 to 100 nM
Cc1cc(N2CC3CC3C2)ccc1Nc1ccc2c(c1)OCC(=O)N2 (stereo not shown) [Compound 641, 7-((4-(3-azabicyclo[3.1.0]hexan-3-yl)-2-methylphenyl)amino)-2H-benzo[b][1,4]oxazin-3(4H)-one] | 0.1 to 100 nM
CCC1CN(c2ccc(Nc3ccc4c(c3)ncn4C)c(C)n2)CCO1 (stereo not shown) [Compound 603, N-[6-(2-ethylmorpholin-4-yl)-2-methylpyridin-3-yl]-1-methyl-1,3-benzodiazol-5-amine] | 0.1 to 100 nM
O=C1CCOc2cc(Nc3ccc(N4CCC(C(F)(F)F)CC4)cc3)ccc2N1 [Compound 534, 8-((4-(4-(trifluoromethyl)piperidin-1-yl)phenyl)amino)-2,3-dihydrobenzo[b][1,4]oxazepin-4(5H)-one] | 0.1 to 100 nM
Cc1nc(N2CC(C)(C)OC(C)(C)C2)ccc1Nc1ccc2c(c1)OCC(=O)N2 [Compound 504] | 0.1 to 100 nM
Cc1cc(N2CCCCC2)ccc1Nc1ccc2c(c1)OCC(=O)N2C [Compound 506] | 0.1 to 100 nM
Cc1cc(N2CC(C)(F)C2)ccc1Nc1ccc2c(c1)OCC(=O)N2 [Compound 595, 7-((4-(3-fluoro-3-methylazetidin-1-yl)-2-methylphenyl)amino)-2H-benzo[b][1,4]oxazin-3(4H)-one] | 0.1 to 100 nM
Cc1cc(N2CC(C)(F)C2)ccc1Nc1ccc2c(c1)OCCC(=O)N2 [Compound 623] | 0.1 to 100 nM
Cc1cc(N2CCC(C(F)(F)F)CC2)ccc1Nc1ccc2[nH]c(=O)oc2c1 [Compound 496, 6-((2-methyl-4-(4-(trifluoromethyl)piperidin-1-yl)phenyl)amino) benzo[d]oxazol-2(3H)-one] | 0.1 to 100 nM
